Our source for the MIC values is US20080280879A1, “SUBSTITUTED HETEROCYCLIC DERIVATIVES AND THEIR PHARMACEUTICAL USE AND COMPOSITIONS” (priority 2007, published 2008).

The MIC is the lowest concentration found to suppress growth.

The structures appear in SMILES notation. ≈ marks a conversion by molar mass, not a printed value.

Type in all cases: cell-based, Staphylococcus aureus
One test relates to Staph aureus 2811. Nature of the test: MIC, microtiter broth dilution (CLSI M7-A7), Assay 1, Table 12 column D, no serum. Conditions: Staphylococcus aureus, 2811, Staph aureus 2811, Assay 1, no serum. The procedure:
(§1) The assays described herein include a panel of bacterial isolates of Staphylococcus aureus. Assay 1 comprises the strains noted in Columns A through E, and Assay 2 comprises the strains noted in Columns F through H. The assays are performed in microtiter trays according to Methods for Dilution Antimicrobial Susceptibility Tests for Bacteria that Grow Aerobically; Approved Standard-7th edition (M7-A7) and interpreted according to the Performance Standards for Antimicrobial Susceptibility Testing; 16th Informational Supplement (M100-S16) published by Clinical Laboratory Standards Institute (CLSI). The antibacterial activity is presented in the form of a minimum inhibitory concentration (MIC) value in μg/ml format. The MIC value represents the lowest concentration of drug measured which prevented macroscopically visible growth under the conditions and specific doses tested. The compounds were initially dissolved in DMSO as 30 mM stocks and diluted accordingly to adjust to a concentration of 10 mg/ml or the compounds were dissolved in DMSO at a concentration of 10 mg/ml. For assessment of activity in the presence of human serum, S. aureus 1146 and S. aureus 1031 were inoculated into Mueller-Hinton Broth with 50% pooled inactivated human serum. In some cases, compounds were tested more than once in a particular assay. Where noted, the MIC value shown in Table 12 represents the geometric mean of the data from multiple runs.
(§2) It should be understood that the data in columns A-H represents MIC data in μg/ml and the notation “<=” means ‘less than or equal to’.

The next test has as its system Staph aureus 2812. Nature of the test: MIC, microtiter broth dilution (CLSI M7-A7), Assay 1, Table 12 column E, no serum. The note with it: Staphylococcus aureus, 2812, Staph aureus 2812, Assay 1, no serum. On the procedure: as §1, §2
Background: Broth dilution looks for growth in wells or tubes with falling amounts of substance.

A further test relates to Staph aureus 1095 MRSA. Nature of the test: MIC, microtiter broth dilution (CLSI M7-A7), Assay 1, Table 12 column A, no serum. The note with it: Staphylococcus aureus, MRSA, Assay 1, no serum. On the procedure: as §1, §2
Test [1] relates to Staph aureus 1146. Nature of the test: MIC in Mueller-Hinton Broth with 50% pooled inactivated human serum, Assay 1, Table 12. The note with it: Staphylococcus aureus, 1146, Staph aureus 1146, Assay 1, 50% human serum; read-out: MIC, column C. The procedure:
as §1, §2

The subject of test [2] is Staph aureus 1146. The experiment in a line: MIC, microtiter broth dilution (CLSI M7-A7), Assay 1, Table 12 column B, no serum. The note with it: Staphylococcus aureus, 1146, Staph aureus 1146, Assay 1, no serum. The procedure: as §1, §2

With `COc1ccc2nccc(C(O)CC[C@@H]3CCN(C4CC(c5cccc(Cl)c5)C4)C[C@@H]3C(=O)O)c2c1` (stereo partly drawn) [Example 29, (3R,4R)-1-[3-(3-chlorophenyl)cyclobutyl]-4-[3-hydroxy-3-(6-methoxyquinolin-4-yl)propyl] piperidine-3-carboxylic acid], the MIC amounted to 0.25 µg/mL (≈ 0.491 µM) in the test with Staph aureus 2811; 0.25 µg/mL (≈ 0.491 µM) in the test on Staph aureus 2812; 0.5 µg/mL (≈ 0.982 µM) against Staph aureus 1095 MRSA; 4 µg/mL (≈ 7.86 µM) in the test with Staph aureus 1146 [1]; 0.25 µg/mL (≈ 0.491 µM) in the test with Staph aureus 1146 [2].

`COc1ccc2nccc(C(O)CC[C@@H]3CCN(C4CC(c5ccc(C(F)(F)F)cc5)C4)C[C@@H]3C(=O)O)c2c1` (stereo partly drawn) [Example 30, (3R,4R)-4-[3-hydroxy-3-(6-methoxyquinolin-4-yl)propyl]-1-{3-[4-(trifluoromethyl)phenyl]cyclobutyl} piperidine-3-carboxylic acid]: the MIC was 4 µg/mL (≈ 7.37 µM) in the test with Staph aureus 2811; 8 µg/mL (≈ 14.7 µM) against Staph aureus 2812; 4 µg/mL (≈ 7.37 µM) against Staph aureus 1095 MRSA; > 64 µg/mL with Staph aureus 1146 [1]; 8 µg/mL (≈ 14.7 µM) against Staph aureus 1146 [2].

For `COc1ccc2nccc(C(O)CC[C@@H]3CCN(C4CC(c5ccc(O)cc5)C4)C[C@@H]3C(=O)O)c2c1` (stereo partly drawn) [Example 31, (3R,4R)-4-[3-hydroxy-3-(6-methoxyquinolin-4-yl)propyl]-1-[3-(4-hydroxyphenyl)cyclobutyl] piperidine-3-carboxylic acid], the MIC is 32 µg/mL (≈ 65.2 µM) against Staph aureus 2811; 32 µg/mL (≈ 65.2 µM) in the test with Staph aureus 2812; 16 µg/mL (≈ 32.6 µM) against Staph aureus 1095 MRSA; > 64 µg/mL in the test on Staph aureus 1146 [1]; 32 µg/mL (≈ 65.2 µM) against Staph aureus 1146 [2].

In the case of `COc1ccc2nccc(C(O)CC[C@@H]3CCN(C4CC(c5ccc(OC)c(OC)c5)C4)C[C@@H]3C(=O)O)c2c1` (stereo partly drawn) [Example 32, (3R,4R)-1-[3-(3,4-dimethoxyphenyl)cyclobutyl]-4-[3-hydroxy-3-(6-methoxyquinolin-4-yl)propyl] piperidine-3-carboxylic acid], the MIC in the test on Staph aureus 2811 is 64 µg/mL (≈ 120 µM); against Staph aureus 2812, 64 µg/mL (≈ 120 µM); in the test on Staph aureus 1095 MRSA, 64 µg/mL (≈ 120 µM); in the test on Staph aureus 1146 [1] it was > 64 µg/mL; against Staph aureus 1146 [2] it was > 64 µg/mL.

For `COc1ccc2nccc(C(O)CC[C@@H]3CCN(C4CC(c5ccc(O)c(OC)c5)C4)C[C@@H]3C(=O)O)c2c1` (stereo partly drawn) [Example 33, (3R,4R)-1-[3-(4-hydroxy-3-methoxyphenyl)cyclobutyl]-4-[3-hydroxy-3-(6-methoxyquinolin-4-yl)propyl]piperidine-3-carboxylic acid], the MIC in the test on Staph aureus 2811, against Staph aureus 2812, against Staph aureus 1095 MRSA, in the test with Staph aureus 1146 [1] and in the test on Staph aureus 1146 [2] was > 64 µg/mL in each case.

On to `COc1ccc2nccc(C(O)CC[C@@H]3CCN(C4CC(c5ccccc5C)C4)C[C@@H]3C(=O)O)c2c1` (stereo partly drawn) [Example 34, (3R,4R)-4-[3-hydroxy-3-(6-methoxyquinolin-4-yl)propyl]-1-[3-(2-methylphenyl)cyclobutyl] piperidine-3-carboxylic acid], for which the MIC with Staph aureus 2811 stood at 0.5 µg/mL (≈ 1.02 µM); against Staph aureus 2812, 0.5 µg/mL (≈ 1.02 µM); against Staph aureus 1095 MRSA it was 1 µg/mL (≈ 2.05 µM); with Staph aureus 1146 [1] it was 16 µg/mL (≈ 32.7 µM); in the test with Staph aureus 1146 [2] it was 1 µg/mL (≈ 2.05 µM).

For `COc1ccc2nccc(C(O)CC[C@@H]3CCN(C4CC(c5c(C)cccc5C)C4)C[C@@H]3C(=O)O)c2c1` (stereo partly drawn) [Example 35, (3R,4R)-1-[3-(2,6-dimethylphenyl)cyclobutyl]-4-[3-hydroxy-3-(6-methoxyquinolin-4-yl)propyl] piperidine-3-carboxylic acid], the MIC against Staph aureus 2811 turned out to be 1 µg/mL (≈ 1.99 µM); against Staph aureus 2812, 1 µg/mL (≈ 1.99 µM); in the test with Staph aureus 1095 MRSA, 4 µg/mL (≈ 7.96 µM); with Staph aureus 1146 [1] it was 64 µg/mL (≈ 127 µM); in the test with Staph aureus 1146 [2], 1 µg/mL (≈ 1.99 µM).

With `COc1ccc2nccc(C(O)CC[C@@H]3CCN(C4CC(c5cccc(F)c5F)C4)C[C@@H]3C(=O)O)c2c1` (stereo partly drawn) [Example 36, (3R,4R)-1-[3-(2,3-difluorophenyl)cyclobutyl]-4-[3-hydroxy-3-(6-methoxyquinolin-4-yl)propyl] piperidine-3-carboxylic acid], the MIC against Staph aureus 2811 was ≤ 0.0625 µg/mL; in the test on Staph aureus 2812, ≤ 0.0625 µg/mL; against Staph aureus 1095 MRSA it was 0.125 µg/mL (≈ 0.245 µM); in the test on Staph aureus 1146 [1], 2 µg/mL (≈ 3.92 µM); in the test with Staph aureus 1146 [2], ≤ 0.0625 µg/mL.

On to `COc1ccc2nccc([C@@H](O)CC[C@@H]3CCN(C4CC(c5ccc(F)cc5F)C4)C[C@@H]3C(=O)O)c2c1` (stereo partly drawn) [Example 37, (3R,4R)-1-[3-(2,4-difluorophenyl)cyclobutyl]-4-[(3S)-3-hydroxy-3-(6-methoxyquinolin-4-yl)propyl] piperidine-3-carboxylic acid], for which the minimal inhibitory concentration (MIC) in the test on Staph aureus 2811 was ≤ 0.0625 µg/mL; with Staph aureus 2812 it was 0.25 µg/mL (≈ 0.49 µM); with Staph aureus 1095 MRSA it was 0.25 µg/mL (≈ 0.49 µM); in the test with Staph aureus 1146 [1], 1 µg/mL (≈ 1.96 µM); with Staph aureus 1146 [2] it was ≤ 0.0625 µg/mL.

Take `COc1ccc2nccc(C(O)CC[C@@H]3CCN(C4CC(c5cc(F)ccc5F)C4)C[C@@H]3C(=O)O)c2c1` (stereo partly drawn) [Example 38, (3R,4R)-1-[3-(2,5-difluorophenyl)cyclobutyl]-4-[3-hydroxy-3-(6-methoxyquinolin-4-yl)propyl] piperidine-3-carboxylic acid]: the MIC was 0.125 µg/mL (≈ 0.245 µM) against Staph aureus 2811; 0.125 µg/mL (≈ 0.245 µM) with Staph aureus 2812; 0.25 µg/mL (≈ 0.49 µM) against Staph aureus 1095 MRSA; 4 µg/mL (≈ 7.83 µM) with Staph aureus 1146 [1]; 0.125 µg/mL (≈ 0.245 µM) against Staph aureus 1146 [2].

On to `COc1ccc2ncc(F)c(C(O)CC[C@@H]3CCN(C4CC(c5cc(F)ccc5F)C4)C[C@@H]3C(=O)O)c2c1` (stereo partly drawn) [Example 39, (3R,4R)-1-[3-(2,5-difluorophenyl)cyclobutyl]-4-[3-(3-fluoro-6-methoxyquinolin-4-yl)-3-hydroxypropyl]piperidine-3-carboxylic acid], for which the MIC against Staph aureus 2811 is 0.25 µg/mL (≈ 0.473 µM); in the test on Staph aureus 2812, ≤ 0.0625 µg/mL; against Staph aureus 1095 MRSA, ≤ 0.125 µg/mL; in the test on Staph aureus 1146 [1], 1 µg/mL (≈ 1.89 µM); with Staph aureus 1146 [2], ≤ 0.0625 µg/mL.

Turning to `COc1ccc2nccc([C@@H](O)CC[C@@H]3CCN(C4CC(c5cc(F)ccc5F)C4)C[C@@H]3C(=O)O)c2c1` (stereo partly drawn) [Example 40, (3R,4R)-1-[3-(2,5-difluorophenyl)cyclobutyl]-4-[(3S)-3-hydroxy-3-(6-methoxyquinolin-4-yl)propyl] piperidine-3-carboxylic acid], the MIC against Staph aureus 2811 was ≤ 0.0625 µg/mL; in the test on Staph aureus 2812 it was ≤ 0.0625 µg/mL; in the test with Staph aureus 1095 MRSA, 0.125 µg/mL (≈ 0.245 µM); in the test on Staph aureus 1146 [1], 1.26 µg/mL (≈ 2.47 µM); with Staph aureus 1146 [2] it was ≤ 0.0625 µg/mL.

With `COc1ccc2nccc([C@@H](O)CC[C@@H]3CCN(C4CC(c5ccc(-c6ccccc6)cc5)C4)C[C@@H]3C(=O)O)c2c1` (stereo partly drawn) [Example 41, (3R,4R)-1-(3-biphenyl-4-ylcyclobutyl)-4-[(3S)-3-hydroxy-3-(6-methoxyquinolin-4-yl)propyl] piperidine-3-carboxylic acid], the MIC against Staph aureus 2811, in the test with Staph aureus 2812, in the test with Staph aureus 1095 MRSA, in the test with Staph aureus 1146 [1] and with Staph aureus 1146 [2] was > 64 µg/mL in each case.

For the compound `COc1ccc2nccc(C(O)CC[C@@H]3CCN(C4CC(C)(c5ccccc5)C4)C[C@@H]3C(=O)O)c2c1` (stereo partly drawn) [Example 42, (3R,4R)-4-[3-hydroxy-3-(6-methoxyquinolin-4-yl)propyl]-1-(3-methyl-3-phenylcyclobutyl)piperidine-3-carboxylic acid], the MIC in the test on Staph aureus 2811 was > 64 µg/mL; against Staph aureus 2812, 32 µg/mL (≈ 65.5 µM); against Staph aureus 1095 MRSA, > 64 µg/mL; with Staph aureus 1146 [1], 32 µg/mL (≈ 65.5 µM); against Staph aureus 1146 [2], > 64 µg/mL.

For the compound `COc1ccc2nccc(C(O)CC[C@@H]3CCN(C4CC(c5ccccc5)C4C)C[C@@H]3C(=O)O)c2c1` (stereo partly drawn) [Example 43, (3R,4R)-4-[3-hydroxy-3-(6-methoxyquinolin-4-yl)propyl]-1-(2-methyl-3-phenylcyclobutyl)piperidine-3-carboxylic acid], the MIC against Staph aureus 2811 is ≤ 0.0625 µg/mL; in the test on Staph aureus 2812 it was ≤ 0.0625 µg/mL; in the test on Staph aureus 1095 MRSA, 0.25 µg/mL (≈ 0.512 µM); in the test on Staph aureus 1146 [1] it was 0.5 µg/mL (≈ 1.02 µM); against Staph aureus 1146 [2] it was ≤ 0.0625 µg/mL.

Regarding `COc1ccc2nccc(C(O)CC[C@@H]3CCN(C4CC(C5CCCCC5)C4)C[C@@H]3C(=O)O)c2c1` (stereo partly drawn) [Example 44, (3R,4R)-1-(3-cyclohexylcyclobutyl)-4-[3-hydroxy-3-(6-methoxyquinolin-4-yl)propyl]piperidine-3-carboxylic acid], the MIC worked out at 0.125 µg/mL (≈ 0.26 µM) against Staph aureus 2811; 0.125 µg/mL (≈ 0.26 µM) with Staph aureus 2812; 0.5 µg/mL (≈ 1.04 µM) against Staph aureus 1095 MRSA; 2 µg/mL (≈ 4.16 µM) in the test with Staph aureus 1146 [1]; 0.25 µg/mL (≈ 0.52 µM) with Staph aureus 1146 [2].

Turning to `COc1ccc2nccc(C(O)CC[C@@H]3CCN(C4CC(C5CCCC5)C4)C[C@@H]3C(=O)O)c2c1` (stereo partly drawn) [Example 45, (3R,4R)-1-(3-cyclopentylcyclobutyl)-4-[3-hydroxy-3-(6-methoxyquinolin-4-yl)propyl]piperidine-3-carboxylic acid], the minimum inhibitory concentration (MIC) with Staph aureus 2811 was ≤ 0.0884 µg/mL; in the test on Staph aureus 2812, ≤ 0.0884 µg/mL; against Staph aureus 1095 MRSA, ≤ 0.125 µg/mL; with Staph aureus 1146 [1], 0.353 µg/mL (≈ 0.758 µM); in the test on Staph aureus 1146 [2] it was ≤ 0.0884 µg/mL.
